Paper PMC2247270, “Inhibition of vincristine binding to plasma membrane vesicles from daunorubicin-resistant Ehrlich ascites cells by multidrug resistance modulators” (British Journal of Cancer, 1989)

Target: T1, P-glycoprotein
T1 construct: plasma membrane vesicles from EHR2/DNR+ Ehrlich ascites tumour cells
Experiment: inhibition of 3H-vincristine binding to plasma membrane vesicles, rapid filtration
Type: biochemical

SMILES: CN1CCN(CCCN2c3ccccc3Sc3ccc(C(F)(F)F)cc32)CC1 [TFP, trifluoperazine]
- IC50: 23.2 µM
